Assay results as given in patent US7119115B2, “Indazole or indole derivatives, and use thereof in human medicine and more particularly in oncology” (Aventis Pharma S.A., priority 2001, dated 2006).

What was measured:
Tubulin = molecular target: T1, Tubulin (Sus scrofa, UniProt P02550+P02554); test: Evaluation of the inhibition of tubulin polymerization (turbidimetry at 350 nm); format: biochemical; settings: concentration that inhibits the rate of polymerization by 50%; pig brain tubulin 10 μM
T1 construct: Tubulin is purified from pig brain according to published methods; from tissue; host or cells: pig brain
Method: Briefly, the brains are ground and centrifuged in an extraction buffer. The tubulin contained in the supernatant of the extract undergoes two successive cycles of polymerization at 37° C. and depolymerization at 4° C., before being separated from the MAPs (Microtubule Associated Proteins) by chromatography on a phosphocellulose P11 column (Whatman). […] It is stored in a buffer known as RB/2 30% glycerol, the composition of which is 50 mM MES-NaOH [2-(N-morpholino)ethanesulphonic acid], pH 6.8; 0.25 mM MgCl2; 0.5 mM EGTA; 30% glycerol (v/v), 0.2 mM GTP (guanosine-5′-triphosphate).
The polymerization of tubulin to microtubules is monitored by turbidimetry as follows: the tubulin is adjusted to a concentration of 10 μM (1 mg/ml) in RB/2 30% glycerol buffer to which 1 mM GTP and 6 mM MgCl2 are added. […] The increase in the turbidity of the solution is monitored at 350 nm.
The products are dissolved at 10 mM in DMSO and added at variable concentrations (0.5 to 10 μM) to the tubulin solution before polymerization.

[1] = system: HDMEC cells (Human Dermal Microvascular Endothelial Cells); test: Detachment of endothelial cells in vitro (test for determining the inhibition of vascularization); format: cell-based; settings: two hours of treatment, relative to control (untreated cells); for inhibition at 1 µM: Homo sapiens, Endothelial cell, 2 h
Excerpt: A test for determining the detachment of the endothelial cells was developed in order to select the products with regard to their “in vitro” activity. This test for determining the detachment of endothelial cells is characterized in that the endothelial cells, inoculated into plates whose bottom is covered with a binder preferably chosen from gelatin, fibronectin and vitronectin, after culturing, are supplemented with a medium containing the test compound, and the cells are then labelled with a fluorescent substance, the cells which have become detached are removed by washing and the fluorescence of the remaining cells is counted in a fluorimeter.
This test consists in measuring the detachment of endothelial cells cultured on substrata based on a binder preferably chosen from fibronectin, vitronectin and gelatin. Preferably, a day after the inoculation of the cells in plates containing, for example, 96 wells, the culture medium is replaced with a medium containing the test compound in the absence of serum. The same preparation is prepared six times at three different concentrations ([…]) and the control six times without addition of antivascular product. After two hours of treatment with the test substance, the cells are labelled with calcein-AM (1.6 μg/ml) in culture medium supplemented with 0.1% BSA. The cells that have become detached are removed by washing with the culture medium containing 0.1% bovine serum albumin; 100 μl of medium are added to each well. The fluorescence of the remaining cells is counted in a fluorimeter. The data obtained are expressed relative to the control (untreated cells).
The evaluation of the detachment of the endothelial cells in vitro is determined in the following manner. HDMEC cells (Human Dermal Microvascular Endothelial Cells, Promocell, c-122102) are cultured in an ECGM-MV medium that contains 5% foetal calf serum, growth factors (EGF 10 ng/ml, hydrocortisone 1 μg/ml, 0.4% growth supplement with heparin) and antibiotics (amphotericin 50 ng/ml, gentamycin 50 μg/ml). For the detachment test, the HDMECs are inoculated at a rate of 5 000 cells in clear-bottomed 96-well plates (Costar) precoated with fibronectin (10 μg/ml), vitronectin (1 μg/ml) or gelatin. Twenty-four hours later, the culture medium is replaced with ECGM-MV 0.1% BSA medium containing the products indicated. The concentrations tested are 0.1–0.3 and 1 μM for each product. After two hours of treatment, the cells are labelled for one hour with calcein (1.6 μg/ml, Molecular Probes) in ECGM-MV 0.1% BSA medium. The detached cells are then removed by washing with ECGM-MV 0.1% BSA medium; 100 μl of medium is added to each well. The fluorescence of the cells that remain attached to the substratum of the well is counted using a fluorimeter, Spectrafluor Plus (Tecan excitation 485 nm, and emission 535 nm). The data are the mean of six different samples and are expressed as the percentage of the control (untreated cells).
A cell detachment effect of greater than or equal to 15% is considered as significant.

T1 sequence (P02550 whole entry): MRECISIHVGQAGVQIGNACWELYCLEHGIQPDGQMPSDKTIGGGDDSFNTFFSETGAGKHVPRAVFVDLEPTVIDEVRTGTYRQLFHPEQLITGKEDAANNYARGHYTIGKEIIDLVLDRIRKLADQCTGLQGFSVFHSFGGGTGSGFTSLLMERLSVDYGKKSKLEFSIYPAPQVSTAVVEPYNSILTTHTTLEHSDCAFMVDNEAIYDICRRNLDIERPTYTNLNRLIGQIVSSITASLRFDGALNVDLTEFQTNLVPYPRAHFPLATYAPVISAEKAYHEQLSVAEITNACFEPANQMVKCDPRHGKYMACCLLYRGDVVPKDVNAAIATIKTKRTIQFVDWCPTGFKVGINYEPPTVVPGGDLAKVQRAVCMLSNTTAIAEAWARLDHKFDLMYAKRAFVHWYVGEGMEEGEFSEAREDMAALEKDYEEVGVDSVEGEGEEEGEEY
T1 sequence (P02554 whole entry): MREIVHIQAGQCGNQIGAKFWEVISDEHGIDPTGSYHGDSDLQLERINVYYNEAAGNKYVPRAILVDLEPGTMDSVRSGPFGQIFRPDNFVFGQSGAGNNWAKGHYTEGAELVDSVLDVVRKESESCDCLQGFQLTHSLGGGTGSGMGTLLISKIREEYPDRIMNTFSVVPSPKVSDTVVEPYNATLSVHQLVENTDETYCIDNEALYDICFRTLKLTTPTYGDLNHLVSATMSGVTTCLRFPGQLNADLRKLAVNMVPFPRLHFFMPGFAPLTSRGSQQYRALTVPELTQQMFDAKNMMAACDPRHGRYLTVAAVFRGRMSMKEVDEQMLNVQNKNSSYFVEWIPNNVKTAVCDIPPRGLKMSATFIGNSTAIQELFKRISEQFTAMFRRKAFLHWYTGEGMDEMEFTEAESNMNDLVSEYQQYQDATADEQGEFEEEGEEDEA

`CON=Cc1n[nH]c2c1C=CC(c1ccccc1)(c1ccccc1)C2` (mixture of isomers) [Example 6-4, 6,6-diphenyl-6,7-dihydro-1H-indazole-3-carbaldehyde O-methyloxime] gave an IC50 (Tubulin) of 6 µM and a melting point of 184 °C.
`O=C(c1n[nH]c2c1C=CC(c1ccccc1)(c1ccccc1)C2)N1CCC1` [Example 3-2, Azetidin-1-yl(6,6-diphenyl-6,7-dihydro-1H-indazol-3-yl)methanone] showed an IC50 (Tubulin) of 4.5 µM and a melting point of 285 °C.
Work on `C=CCO/N=C(\c1n[nH]c2c1C=CC(c1ccccc1)(c1ccccc1)C2)C1CC1` [Example 6-6A, cyclopropyl(6,6-diphenyl-6,7-dihydro-1H-indazol-3-yl)methanone O-allyloxime] yielded an inhibition at 1 µM [1] of 17% and an IC50 (Tubulin) of 1 µM.
Compound `C=CC(=O)n1nc(N)c2c1CC(c1ccccc1)(c1ccccc1)C=C2` [Example 7-2, 1-(3-Amino-6,6-diphenyl-6,7-dihydroindazol-1-yl)propenone] has an inhibition at 1 µM [1] of 25% and an IC50 (Tubulin) of 5 µM.
`O=C(Nc1n[nH]c2c1C=CC(c1ccccc1)(c1ccccc1)C2)c1ccccc1` [Example 7-4, N-[6,6-Diphenyl-6,7-dihydro-1H-indazol-3-yl]benzamide] showed an inhibition at 1 µM [1] of 18% and an IC50 (Tubulin) of 6 µM.
`Cc1noc(-c2n[nH]c3c2C=CC(c2ccccc2)(c2ccccc2)C3)n1` [Example 8-1, 3-(3-Methyl[1,2,4]oxadiazol-5-yl)-6,6-diphenyl-6,7-dihydro-1H-indazole] gave an inhibition at 1 µM [1] of 24% and an IC50 (Tubulin) of 9 µM.
`O=C(c1n[nH]c2c1C=CC(c1ccc(F)cc1)(c1ccc(F)cc1)C2)C1CC1` [Example 10-7, Cyclopropyl[6,6-bis(4-fluorophenyl)-6,7-dihydro-1H-indazol-3-yl]methanone] gave an inhibition at 1 µM [1] of 24% and an IC50 (Tubulin) of 1 µM.
With `O/N=C(\c1n[nH]c2c1C=CC(c1ccc(F)cc1)(c1ccc(F)cc1)C2)C1CC1` [Example 10-8A, cyclopropyl[6,6-bis(4-fluorophenyl)-6,7-dihydro-1H-indazol-3-yl]methanone oxime] the inhibition at 1 µM [1] was 17% and the IC50 (Tubulin) was 1.5 µM.
With `CCOC(=O)c1c[nH]c2c1C=CC(c1ccccc1)(c1ccccc1)C2` [Example 12, Ethyl 6,6-diphenyl-6,7-dihydro-1H-indole-3-carboxylate] the inhibition at 1 µM [1] was 17% and the IC50 (Tubulin) was 2 µM.
For “(R,S)-cyclopropyl[6-(4-fluorophenyl)-6-phenyl-6,7-dihydro-1H-indazol-3-yl]methanone [Example 10-4A]”, the “% detachment 1 μM” value [1] was 33% and the IC50 (Tubulin) was 1 µM.
